pIC50: −log10 of the molar value. Values joined by “and” are separate entries in the source; they are usually repeats but may differ in a detail not shown here. Identical values can stand only once. Like-named read-outs stand apart in the source and are kept apart here.
Experiments:
[1] = system: 23 human leukemia cell lines; assay: alamarBlue cytotoxicity assay, panel summary; type: cell-based
Method: (§1) Following subtraction of background fluorescence from all wells, fluorescence of drug-treated cells was normalized to that of vehicle (<0.5% DMSO)-treated cells to determine the effect of each drug concentration on viability. Each cell line was tested in triplicate and in at least three independent experiments. IC50 (concentration that inhibits cell growth by 50%) values were calculated using CompuSyn software (ComboSyn, Paramus, NJ). […] In addition several cell lines were initially cultured and tested in alternative media (Supplementary Table S2). […] Colony counts were normalized to vehicle-treated controls (100%). Three independent experiments were performed.
In most experiments, cytotoxicity was assessed using alamarBlue assays (Life Technologies, Grand Island, NY). In experiments using NAC and DFO, which can interfere with alamarBlue assay performance, Trypan Blue dye exclusion was used instead.

MOLM14 cells [2] = assay: clonogenicity (colony formation in semi-solid medium); type: cell-based, human; details: 24h pretreatment
Method: as §1
(§2) After 7-10d (leukemia cells) or 10-14d (HSPCs), colonies (≥20 cells) were enumerated.

MV-4-11 cells = assay: as above; type: cell-based, human; details: 24h pretreatment
Method: as §1, §2

HL-60 cells = assay: as above; type: cell-based, human; details: 24h pretreatment
Method: (§3) page 2: Supplementary Figure S3: […] hours. Two B-ALL (KOPN8, SEM) and two AML (MOLM14, THP-1) cell lines were treated with the indicated concentrations of ART- 838 or AS for 24–96 h, then viability determined as in Figure 1A. Data are represented as mean +/– SD. Supplementary Figure S4: […] Colony-forming assays were performed as in Figure 1B in A. K562 and B. HL-60 AML cell lines. Each experiment was performed once in triplicate. Data are represented as mean +/– SD.

K562 cells = assay: as above; type: cell-based, human; details: 24h pretreatment
Method: as §3

MOLM14 cells [3] = assay: apoptosis (Annexin-V/7-AAD flow cytometry); type: cell-based, human; details: 24h
Method: (§4) A. Quantification of the percentage of early apoptotic cells (Annexin-V+/7-AAD-) from three independent experiments in which cells were stained for apoptosis with 7-AAD and Annexin-V then analyzed by flow cytometry. […] C. […] 16h after addition of drugs, cells were washed and analyzed by flow cytometry for CM-H2DCFDA fluorescence (indicating total ROS generation) in the FL1 channel. Mean Fluorescence Intensity (MFI) was normalized to that of vehicle control (0.5% DMSO) with no pretreatment. […] Viable cell counts, obtained via Trypan Blue dye exclusion, were normalized to vehicle (0.02% DMSO)-treated samples +/– pretreatment.
(§5) Cells were co-stained with […] each 7-AAD and APC-conjugated Annexin-V (BioLegend), in Annexin-V binding buffer and analyzed by flow cytometry. Caspase-3/7 activity was measured using a Caspase-Glo 3/7 Assay (Promega, Madison, WI).

[4] = system: Caspase-3/7 activity in MOLM14 cells; assay: Caspase-Glo 3/7 Assay; type: cell-based, human; details: AS 5 μM, 24h
Method: as §4, §5

in vivo [5] = details: NSG, mouse, in vivo, po
Method: Blood samples were collected via
retro-orbital bleeding into EDTA-coated tubes from MOLM14 NSG mice 1 day A-D. and 7 days E-H. after completion of a 5-day drug
CBCs were determined using a Hemavet 950 analyzer.
Normal blood samples were obtained from normal, untreated NSG mice (n = 37) over several years.

MOLM14 xenograft = assay: subcutaneous MOLM14 AML xenograft; details: for average tumor mass less than vehicle-treated tumors: day 21
Method: CBCs were performed on day 23 (Supplementary Figure S8). Mice were euthanized when tumors reached an estimated 2000mg. […] B. Percent of Day 0 body weight. […] C. Kaplan-Meier survival analysis. […] D. Percent of Day 0 body weight.

in vivo [6] = details: male, NSG, mouse, plasma, po, 200 mg/kg
Method: (§6) Plasma samples were obtained from 3-6 male NSG mice per time point (15min-24h after drug administration). Symbols represent concentrations of compound by LC/MS-MS detection.
(§7) Blood samples were collected via retro-orbital bleeding into EDTA-coated tubes. PK samples were centrifuged to obtain plasma, which was stored frozen (−80°C) until liquid chromatography/triple quadrupole mass spectrometry (LC/MS-MS) analysis.
(§8) were separated using an Agilent Zorbax Eclipse C18 column (2.1 mm x 50 mm, 3.5 μm) using gradient mobile phase
(§9) (acetonitrile and 2 mM ammonium acetate both containing 0.1% formic acid) and a gradient flow rate (0.2 to 0.4 ml/
(§10) min). An AB Sciex 5500 triple quadrupole mass spectrometer was used for detection. The m/z transitions used were
(§11) The calibration range was 5–1,000 ng/mL for all analytes. Mean drug concentrations were calculated at each time point. PK parameters (plasma
(§12) half-life [T1/2]; time to reach Cmax [Tmax]; maximum plasma concentration [Cmax]; area under the plasma concentration-
(§13) time curve [AUC] from time zero to the last measurable concentration [AUClast]; AUC from time zero to infinity [i.e.,
(§14) the AUClast + the extrapolated AUC from AUClast to infinity; AUC0–∞]; apparent volume of distribution [Vz/F]; body
(§15) weight-adjusted apparent clearance [CL/F/kg]) were calculated from mean drug concentration-time data using non-
(§16) the r2 of the elimination rate constant (λ ) was < 0.9, the AUC , CL/F, and T were not reported (NR).

primary B-ALL case #109 = assay: intravenous B-ALL primagraft model
Method: Mice were weighed weekly and tumors measured at least twice weekly. […] Mice were euthanized when tumors reached an estimated 2000mg. […] Mice were weighed weekly and observed daily for clinical signs of severe leukemia.
Highly immunodeficient NSG mice, obtained originally from Jackson Laboratory (Bar Harbor, ME), were bred and housed in the UMSOM animal facilities, and handled in a laminar flow hood under aseptic conditions. All experiment procedures and animal care were in compliance with the NIH guidelines for the Care and Use of Laboratory Animals and approved by the UMSOM Institutional Animal Care and Use Committee. Drugs were formulated in Tween 80:ethanol (7:3, v:v) and diluted 1:10 in filtered deionized water immediately before administration. […] Mice were monitored daily and euthanized when tumors reached an estimated mass of 2000mg (using the formula: [length x width^2]/2, assuming density = 1 mg/mm^3) [56]. […] Mice were euthanized for clinical signs of severe leukemia or other severe distress [52].
Mice were weighed weekly and observed daily for clinical signs of severe

[7] = plasma pharmacokinetics after single oral dose; details: NSG mice
Method: as §6, §7, §8, §9, §10, §11, §12, §13, §14, §15, §16

[8] = system: Jurkat T-cell acute lymphoblastic leukemia (T-ALL) cells; design: method as in PMID 23673218; details: cited from earlier work
[9] = four 5-day cycles AS 150 mg/kg/d
[10] = four 5-day cycles ART-838 40 mg/kg/d
[11] = plasma, single oral dose ART-838 50 mg/kg

C[C@H]1[C@H](OC(=O)CCC(=O)O)O[C@@H]2O[C@@]3(C)CC[C@H]4[C@H](C)CC[C@@H]1[C@@]24OO3 [AS, artesunate]
pIC50 ([1]; Homo sapiens, 48 h, all 23 leukemia cell lines tested, 48h, read-out: IC50 range): 4.99 to 6.34 | pIC50 ([1]; Homo sapiens, Leukemia Type: ALL, unit only on plot axis of Figure 1A, read-out: IC50 Range): 5.00 to 6.34 | pIC50 ([1]; Homo sapiens, Leukemia Type: ALL, unit only on plot axis of Figure 1A, read-out: Mean IC50): 5.30 | pIC50 ([1]; Homo sapiens, Leukemia Type: ALL, unit only on plot axis of Figure 1A, read-out: Median IC50): 5.32 | pIC50 ([1]; Homo sapiens, Leukemia Type: AML, unit only on plot axis of Figure 1A, read-out: IC50 Range): 5.20 to 6.10 | pIC50 ([1]; Homo sapiens, Leukemia Type: AML, unit only on plot axis of Figure 1A, read-out: Mean IC50): 5.64 | pIC50 ([1]; Homo sapiens, Leukemia Type: AML, unit only on plot axis of Figure 1A, read-out: Median IC50): 5.77 | clonogenicity (MOLM14 cells [2]; AS 10 μM): substantially reduced | clonogenicity (MV-4-11 cells; AS 10 μM): substantially reduced | clonogenicity (HL-60 cells): reduced clonogenicity | clonogenicity (K562 cells): reduced clonogenicity | apoptosis (MOLM14 cells [3]; AS 5 μM): induced significant apoptosis | caspase-3/7 activity [4]: caspase-3/7 activation | MTD (in vivo [5]): 500 to 600 mg/kg | MTD at 5 days/week (in vivo [5]): 150 to 200 mg/kg | average tumor mass less than vehicle-treated tumors (MOLM14 xenograft; two 5-day cycles AS 200 mg/kg/d oral gavage): 44% | AUC(0-t) (in vivo [6]): 34.8 ng·h/mL | Cmax (in vivo [6]): 67 ng/mL and 240 nM | Tmax (in vivo [6]): 15 min | body weight loss following treatment (primary B-ALL case #109; [9]): No dose-limiting body weight loss | extension of mean survival time (primary B-ALL case #109; [9]): 19 days | prolongation of mean survival time (primary B-ALL case #109; [9]): 51% | Mean time to severe clinical signs of leukemia (surrogate for survival) (primary B-ALL case #109; four 5-day cycles AS 150 mg/kg/d oral gavage, vehicle 37): 56 | Mean time to severe clinical signs of leukemia (surrogate for survival) (primary B-ALL case #109; second experiment: two 5-day cycles AS 200 mg/kg/d, days 1 and 29, vehicle 28): 43 | time by which plasma declined to undetectable levels ([7]; single oral dose AS 200 mg/kg): ≤ 1 h

C[C@@H]1CCC2[C@@H](C)[C@@H](CC(COP(=O)(Oc3ccccc3)Oc3ccccc3)C[C@H]3O[C@@H]4O[C@@]5(C)CCC6[C@H](C)CCC([C@H]3C)[C@]64OO5)O[C@@H]3O[C@@]4(C)CCC1[C@@]23OO4 (some centres unmarked) [ART-838, artemisinin-derived trioxane diphenylphosphate dimer 838]
fold more potent than AS (average) ([1]; across 23 leukemia cell lines): 88 fold | fold more potent than AS (range) ([1]; across 23 leukemia cell lines): 11-315 fold | pIC50 ([1]; all 23 leukemia cell lines tested, 48h, read-out: IC50 range): 6.26 to 8.00 | pIC50 ([1]; including those harboring MLLr and FLT3/ITD, read-out: IC50 against every acute leukemia tested): > 6.00 | clonogenicity (MOLM14 cells [2]; ART-838 0.1 μM): completely abolished | clonogenicity (MV-4-11 cells; ART-838 0.1 μM): completely abolished | clonogenicity (HL-60 cells): reduced clonogenicity | clonogenicity (K562 cells): reduced clonogenicity | fold lower concentration than AS achieving similar levels of apoptosis and caspase-3/7 activity (MOLM14 cells [3]): 50 fold | average tumor mass less than vehicle-treated tumors (MOLM14 xenograft; two 5-day cycles ART-838 50 mg/kg/d oral gavage): 83% | complete and differential blood cell counts (MOLM14 xenograft; tumor-bearing NSG mice, day 23, after two 5-day cycles ART-838 50 mg/kg/d): within the normal range | fold lower IC50 than that of AS [8]: ~70 fold | body weight loss following treatment (primary B-ALL case #109; [10]): No dose-limiting body weight loss | extension of mean survival time (primary B-ALL case #109; [10]): 20 days | prolongation of mean survival time (primary B-ALL case #109; [10]): 55% | Mean time to severe clinical signs of leukemia (surrogate for survival) (primary B-ALL case #109; four 5-day cycles ART-838 40 mg/kg/d oral gavage, vehicle 37): 57 | Mean time to severe clinical signs of leukemia (surrogate for survival) (primary B-ALL case #109; second experiment: two 5-day cycles ART-838 50 mg/kg/d, days 1 and 29, vehicle 28): 47 | fold longer T1/2 than DHA ([7]; ART-838 50 mg/kg vs DHA after AS 200 mg/kg, oral): ~6 fold | detection of theoretical metabolites DHA and ART-606 in plasma ([7]; after ART-838 administration, LC/MS-MS): did not detect DHA or ART-606 | AUC0–∞ [7, 11]: 951 ng·h/mL | AUClast [7, 11]: 903 ng·h/mL | CL/F/kg [7, 11]: 52 L/h/kg | Tmax [7, 11]: 1.5 h | Vz/F [7, 11]: 241 L/kg | T1/2 ([7]; plasma, single oral dose ART-838 50 mg/kg, 50 mg/kg): 3.19 h and > 3 h
